# Key:
# Conditions in all cases: 72 h
# [1] = tested on: U2OS; assay: cell viability relative to DMSO; higher = less toxic
# [2] = tested on: Vero E6; assay: as above
# [3] = tested on: Caco-2; assay: as above
# [4] = tested on: Calu-3; assay: as above
# [5] = tested on: HepG2; assay: as above
# [6] = tested on: U2OS; assay: relative viability EC50 (midpoint between 100% and the lowest measured viability); higher = less toxic
# [7] = tested on: Caco-2; assay: as above
# [8] = tested on: HepG2; assay: as above
# [9] = tested on: U2OS; assay: drug sensitivity score (DSS) for viability; higher = more toxic; extreme values may be limits of the assay
# [10] = tested on: Vero E6; assay: as above
# [11] = tested on: Caco-2; assay: as above
# [12] = tested on: Calu-3; assay: as above
# [13] = tested on: HepG2; assay: as above
# [14] = tested on: Calu-3; assay: relative viability EC50 (midpoint between 100% and the lowest measured viability); higher = less toxic
smiles,measurement,setting,value
CC(=O)O[C@H]1C(=O)[C@@]2(C)[C@H]([C@H](OC(=O)c3ccccc3)[C@]3(O)C[C@H](OC(=O)[C@H](O)[C@@H](NC(=O)c4ccccc4)c4ccccc4)C(C)=C1C3(C)C)[C@]1(OC(C)=O)CO[C@@H]1C[C@@H]2O [paclitaxel],cell viability,[1]; 1 nM,101%
same,cell viability,[1]; 10 nM,67.9%
same,cell viability,[1]; 100 nM,32.9%
same,cell viability,[1]; 1000 nM,30.3%
same,cell viability,[1]; 10000 nM,26.3%
same,cell viability,[2]; 1 nM,103%
same,cell viability,[2]; 10 nM,98.3%
same,cell viability,[2]; 100 nM,91.6%
same,cell viability,[2]; 1000 nM,59.8%
same,cell viability,[2]; 10000 nM,74.2%
same,cell viability,[3]; 1 nM,109%
same,cell viability,[3]; 10 nM,84.8%
same,cell viability,[3]; 100 nM,61.7%
same,cell viability,[3]; 1000 nM,57%
same,cell viability,[3]; 10000 nM,48.7%
same,cell viability,[4]; 1 nM,97.9%
same,cell viability,[4]; 10 nM,64.3%
same,cell viability,[4]; 100 nM,62.6%
same,cell viability,[4]; 1000 nM,68.5%
same,cell viability,[4]; 10000 nM,65.7%
same,cell viability,[5]; 1 nM,108%
same,cell viability,[5]; 10 nM,64.9%
same,cell viability,[5]; 100 nM,42.8%
same,cell viability,[5]; 1000 nM,36.5%
same,cell viability,[5]; 10000 nM,34.4%
same,relative viability EC50,[6],0.0128 µM
same,relative viability EC50,[7],0.0334 µM
same,relative viability EC50,[8],0.0095 µM
same,drug sensitivity score,[9],25.9
same,drug sensitivity score,[10],8.6
same,drug sensitivity score,[11],14.7
same,drug sensitivity score,[12],16.4
same,drug sensitivity score,[13],24.9
N=C(N)c1ccc(OCCCCCOc2ccc(C(=N)N)cc2)cc1 [pentamidine],cell viability,[1]; 1 nM,105%
same,cell viability,[1]; 10 nM,105%
same,cell viability,[1]; 100 nM,101%
same,cell viability,[1]; 1000 nM,96.3%
same,cell viability,[1]; 10000 nM,71.5%
same,cell viability,[2]; 1 nM,107%
same,cell viability,[2]; 10 nM,65.4%
same,cell viability,[2]; 100 nM,92.6%
same,cell viability,[2]; 1000 nM,79.8%
same,cell viability,[2]; 10000 nM,82.9%
same,cell viability,[3]; 1 nM,90.1%
same,cell viability,[3]; 10 nM,93.4%
same,cell viability,[3]; 100 nM,92.2%
same,cell viability,[3]; 1000 nM,93.9%
same,cell viability,[3]; 10000 nM,71.7%
same,cell viability,[4]; 1 nM,94.7%
same,cell viability,[4]; 10 nM,104%
same,cell viability,[4]; 100 nM,104%
same,cell viability,[4]; 1000 nM,96%
same,cell viability,[4]; 10000 nM,94.5%
same,cell viability,[5]; 1 nM,104%
same,cell viability,[5]; 10 nM,97.5%
same,cell viability,[5]; 100 nM,105%
same,cell viability,[5]; 1000 nM,22.5%
same,cell viability,[5]; 10000 nM,18.3%
same,relative viability EC50,[14],> 10 µM
same,relative viability EC50,[8],0.39 µM
same,drug sensitivity score,[9],1.8
same,drug sensitivity score,[10],3.4
same,drug sensitivity score,[11],1.9
same,drug sensitivity score,[12],0
same,drug sensitivity score,[13],13.9
Cc1nc(=O)c2cc(CN(C)c3ccc(C(=O)N[C@@H](CCC(=O)O)C(=O)O)s3)ccc2[nH]1 [raltitrexed],cell viability,[1]; 1 nM,99.1%
same,cell viability,[1]; 10 nM,105%
same,cell viability,[1]; 100 nM,100%
same,cell viability,[1]; 1000 nM,97.4%
same,cell viability,[1]; 10000 nM,95.8%
same,cell viability,[2]; 1 nM,98.8%
same,cell viability,[2]; 10 nM,101%
same,cell viability,[2]; 100 nM,66.1%
same,cell viability,[2]; 1000 nM,62.9%
same,cell viability,[2]; 10000 nM,66.6%
same,cell viability,[3]; 1 nM,91.2%
same,cell viability,[3]; 10 nM,99%
same,cell viability,[3]; 100 nM,64.2%
same,cell viability,[3]; 1000 nM,59.9%
same,cell viability,[3]; 10000 nM,50.1%
same,cell viability,[4]; 1 nM,103%
same,cell viability,[4]; 10 nM,104%
same,cell viability,[4]; 100 nM,87.4%
same,cell viability,[4]; 1000 nM,92.6%
same,cell viability,[4]; 10000 nM,85.8%
same,cell viability,[5]; 1 nM,111%
same,cell viability,[5]; 10 nM,104%
same,cell viability,[5]; 100 nM,70.7%
same,cell viability,[5]; 1000 nM,60.7%
same,cell viability,[5]; 10000 nM,65.1%
same,relative viability EC50,[6],> 10 µM
same,relative viability EC50,[14],> 10 µM
same,drug sensitivity score,[9],0
same,drug sensitivity score,[10],10.7
same,drug sensitivity score,[11],13.4
same,drug sensitivity score,[12],2
same,drug sensitivity score,[13],10.5
O=C(O)c1cn(-c2ccc(F)cc2)c2cc(N3CCNCC3)c(F)cc2c1=O [sarafloxacin],cell viability,[1]; 1 nM,101%
same,cell viability,[1]; 10 nM,108%
same,cell viability,[1]; 100 nM,99.2%
same,cell viability,[1]; 1000 nM,100%
same,cell viability,[1]; 10000 nM,97.4%
same,cell viability,[3]; 1 nM,98.3%
same,cell viability,[3]; 10 nM,87.3%
same,cell viability,[3]; 100 nM,95.6%
same,cell viability,[3]; 1000 nM,98%
same,cell viability,[3]; 10000 nM,97.4%
same,cell viability,[4]; 1 nM,93.1%
same,cell viability,[4]; 10 nM,95.7%
same,cell viability,[4]; 100 nM,102%
same,cell viability,[4]; 1000 nM,99.7%
same,cell viability,[4]; 10000 nM,101%
same,cell viability,[5]; 1 nM,113%
same,cell viability,[5]; 10 nM,98.8%
same,cell viability,[5]; 100 nM,101%
same,cell viability,[5]; 1000 nM,94.4%
same,cell viability,[5]; 10000 nM,99.6%
same,relative viability EC50,[6],> 10 µM
same,relative viability EC50,[7],> 10 µM
same,relative viability EC50,[14],> 10 µM
same,relative viability EC50,[8],> 10 µM
same,drug sensitivity score,[9],0
same,drug sensitivity score,[11],0
same,drug sensitivity score,[12],0
same,drug sensitivity score,[13],0
C[C@]1(Cn2ccnn2)[C@H](C(=O)O)N2C(=O)C[C@H]2S1(=O)=O [tazobactam],cell viability,[1]; 1 nM,95.4%
same,cell viability,[1]; 10 nM,102%
same,cell viability,[1]; 100 nM,98.9%
same,cell viability,[1]; 1000 nM,100%
same,cell viability,[1]; 10000 nM,95.6%
same,cell viability,[3]; 1 nM,81.7%
same,cell viability,[3]; 10 nM,96.4%
same,cell viability,[3]; 100 nM,91.3%
same,cell viability,[3]; 1000 nM,94.6%
same,cell viability,[3]; 10000 nM,85.4%
same,cell viability,[4]; 1 nM,93.2%
same,cell viability,[4]; 10 nM,98.7%
same,cell viability,[4]; 100 nM,91.6%
same,cell viability,[4]; 1000 nM,94.3%
same,cell viability,[4]; 10000 nM,105%
same,cell viability,[5]; 1 nM,107%
same,cell viability,[5]; 10 nM,102%
same,cell viability,[5]; 100 nM,97.4%
same,cell viability,[5]; 1000 nM,113%
same,cell viability,[5]; 10000 nM,107%
same,relative viability EC50,[6],> 10 µM
same,relative viability EC50,[7],> 10 µM
same,relative viability EC50,[14],> 10 µM
same,relative viability EC50,[8],> 10 µM
same,drug sensitivity score,[9],0
same,drug sensitivity score,[11],0
same,drug sensitivity score,[12],0
same,drug sensitivity score,[13],0
CO[C@H]1C[C@@H]2CC[C@@H](C)[C@@](O)(O2)C(=O)C(=O)N2CCCC[C@H]2C(=O)O[C@H]([C@H](C)C[C@@H]2CC[C@H](n3cnnn3)[C@H](OC)C2)CC(=O)[C@H](C)/C=C(\C)[C@@H](O)[C@@H](OC)C(=O)[C@H](C)C[C@H](C)/C=C/C=C/C=C/1C [zotarolimus],cell viability,[1]; 1 nM,93.4%
same,cell viability,[1]; 10 nM,61.8%
same,cell viability,[1]; 100 nM,60.2%
same,cell viability,[1]; 1000 nM,56.9%
same,cell viability,[1]; 10000 nM,52.5%
same,cell viability,[2]; 1 nM,92.6%
same,cell viability,[2]; 10 nM,85.2%
same,cell viability,[2]; 100 nM,69.6%
same,cell viability,[2]; 1000 nM,61%
same,cell viability,[2]; 10000 nM,58.7%
same,cell viability,[3]; 1 nM,82.5%
same,cell viability,[3]; 10 nM,63.1%
same,cell viability,[3]; 100 nM,60%
same,cell viability,[3]; 1000 nM,52.9%
same,cell viability,[3]; 10000 nM,60.3%
same,cell viability,[4]; 1 nM,68.2%
same,cell viability,[4]; 10 nM,59.4%
same,cell viability,[4]; 100 nM,54.5%
same,cell viability,[4]; 1000 nM,46.3%
same,cell viability,[4]; 10000 nM,52.2%
same,cell viability,[5]; 1 nM,84.4%
same,cell viability,[5]; 10 nM,74%
same,cell viability,[5]; 100 nM,63.1%
same,cell viability,[5]; 1000 nM,62.9%
same,cell viability,[5]; 10000 nM,61.1%
same,relative viability EC50,[14],< 0.001 µM
same,drug sensitivity score,[9],19.9
same,drug sensitivity score,[10],11.9
same,drug sensitivity score,[11],19.5
same,drug sensitivity score,[12],22.1
same,drug sensitivity score,[13],15.4
